In US20260014278A1, “HYBRID PEPTIDE DENDRIMER SYSTEMS AND EXTRAHEPATIC DELIVERY” (NUNTIUS THERAPEUTICS LIMITED, priority 2022, published 2026):

How the values were obtained:
[1] = system: Mouse muscle cells (C2c12); assay: eGFP expression (RFU/mg) in C2c12 muscle cells, muscle-targeting dendrimers; type: cell-based; conditions: N:P=0.6:1, DOTMA:DOPE w/w 10:1, 24 hours post-transfection; FIG. 9
Procedure: Cell lines, transfection reagents and mRNA. C2c12 cells were maintained in DMEM medium with 10% (v/v) FCS and 1% (v/v) L-glutamine in a humidified atmosphere in 5% CO2, and 37° C. The Alexa Fluor 488 tagged mRNA, expressing an eGFP, was purchased from RiboPro. The mRNA either expressing an eGFP or firefly luciferase was purchased from Trilink. DOTMA:DOPE, 1:1 (w/w) were obtained from Invitrogen or Encapsula NanoSciences LLC.
Transfection procedure. 24 hours before transfection, C2c12 cells were seeded in 96well plates in order to reach 70% confluence. mRNA transfection complexes were formed by mixing mRNA with the dendrimers in 25 mM HEPES buffer, then with DOTMA:DOPE in 25 mM HEPES buffer at 25° C. The transfection complexes were then overlaid to the cells in full growth medium. The cells were harvested 4 hours after transfection for FACS analysis or 24 hours post transfection for reporter genes assays.
Two variants (NTX2 and NTX3) of the peptide dendrimer GSCG1,2-RL, 3-LR ((LR)8(KRL)4(KRL)2KGSC-NH2) were made which include the ASSLNIA (SEQ ID NO:1) muscle targeting peptide. Transfection of muscle cells with GSCG1,2-RL, 3-LR, NTX2 ((LR)8(KRL)4(KRL)2[…](Acp)-NH2) or NTX3 ((LR)8(KRL)4(KRL)2[…](Acp)-NH2) was performed using eGFP mRNA and transfection efficiency was assayed using either flow cytometry or the transgene expression assay. […]
Transgene expression assay: The cells were washed twice with PBS and incubated with 50 ul of 1× M-PER lysis buffer (Thermo 11874111). […] 40 ul of lysate from each well was transferred to all black 96 well plates for quantification of eGFP relative fluorescence unit (RFU), absorbance at 535 nm, using Molecular devices SpectraMax iD5.
Protein content determination: The protein content of each cell lysate was determined by mixing the lysate (25 μL) with Pierce™ BCA Protein Assay Kit (200 ul, Thermo Scientific). After 30 minutes of 37° C. incubation in at dark, absorbance was measured at 562 nm with Molecular devices SpectraMax iD5 and converted to protein concentration using a BSA standard curve. […]

C2c12 muscle cells = assay: Uptake of Alexa488 labelled mRNA in C2c12 cells, flow cytometry; type: cell-based, mouse; conditions: NTX3 N:P=0.6:1, DOTMA:DOPE w/w 10:1, 4 hours; FIG. 18
Procedure: FIG. 18. […] Labelled mRNA delivery to cells. Mouse muscle cells (C2c12) took up mRNA labelled with an Alexa488 fluorophore following transfection. The cells were transfected with labelled mRNA alone, labelled mRNA with NTX3 (N:P=0.6:1) and DOTMA:DOPE for 4 hours, and the uptake of the mRNA was measured by flow cytometry. NTX3 is GSCG1,2-RL, 3-LR linked with a muscle cell targeting peptide with 6 histidines. DOTMA:DOPE was used at w/w=10:1 to mRNA.
C2c12 cells were maintained in DMEM medium with 10% (v/v) FCS and 1% (v/v) L-glutamine in a humidified atmosphere in 5% CO2 and 37° C. The Alexa Fluor 488 tagged mRNA, expressing an eGFP, was purchased from RiboPro. 24 hours before transfection, C2c12 cells were seeded in 96 well plates in order to reach 70% confluence. mRNA transfection complexes were formed by mixing mRNA with the dendrimers in 25 mM HEPES buffer, then with DOTMA:DOPE (1:1 w/w) in 25 mM HEPES buffer at 25° C. The transfection complexes (“NTX3”) were then overlaid to the cells in full growth medium. The cells were harvested for FACS analysis 4 hours after transfection. Cells medium and PBS used to wash each well, was collected from each treatment before the addition of […] EDTA in PBS. After 10 minutes of incubation at 37° C., the cells were gently detached from the plates and pelleted down at 400 g for 8 minutes, 4° C. […] Collected data were analysed using FlowJo 10.0 software.

[2] = Zeta potential of nanoparticles (electrophoretic light scattering); type: physicochemical
Excerpt: Zeta potential is a measurement of the magnitude of the electrostatic or charge repulsion/attraction between particles. This can be determined by analysing particle mobility and charge (Zeta potential) using the Electrophoretic Light Scattering (ELS) technique.
Zeta potential is a measurement of the magnitude of the electrostatic or charge repulsion/attraction between particles. This can be determined by analysing particle mobility and charge (Zeta potential) using the Electrophoretic Light Scattering (ELS) technique. […] Parameters: reference material: polystyrene latex, dispersant: water, 25° C. The measurements of the zeta potential were carried out using the Zetasizer Advance Series—Pro (Malvern Panalytical Ltd, Malvern, UK) according to the manufacturer's instructions.

[3] = system: mouse muscle cells (C2c12 cells); assay: eGFP expression in undifferentiated C2c12 cells, coat with or without muscle targeting domain; type: cell-based; conditions: GSCG1,2-RHL N:P=0.6:1, DOTMA/DOPE w/w 10:1, same mole equivalent of coat, 24 hours; FIG. 26
Excerpt: Nanocarrier comprising GSCG1,2-RHL (N:P=0.6:1 to mRNA) with DOTMA/DOPE (w/w=10:1 to mRNA) and mRNA was firstly prepared as described. The nanoparticles were then coated with a dendrimer with a muscle targeting domain, the muscle-G1-EEEE (Ac-EEEE)2[…]-(Acp)-NH2), at different mRNA:coating mole ratios, between 0.5:1 to 5:1, preferably around 2.74:1. As a control, the nanoparticles were coated with a dendrimer without a muscle targeting domain, the G1-EEEE, at different mRNA:coating mole ratios, between 0.5:1 to 5:1, preferably around 2.74:1.
In a first experiment, mouse muscle cells (C2c12 cells) were transfected with formulations comprising mRNA expressing eGFP. The formulations used were comprising GSCG1,2-RHL (N:P=0.6:1 to mRNA) with DOTMA/DOPE (w/w=10:1 to mRNA) and mRNA, and coated with either the same equivalent of mole of dendritic PGA with or without the muscle targeting domain. The cells were harvested 24 hours post-transfection. Control: Cells were not transfected with mRNA. The dendrimer with the muscle targeting domain was (Ac-EEEE)2[…]-(Acp)-NH2 (named “muscle-G1-EEEE”. ASSLNIA, SEQ ID NO:1, is the muscle targeting motif). The dendrimer without the muscle targeting domain was (Ac-EEEE)2[…]-NH2 (“[…]1-EEEE”).

[4] = Dynamic light scattering: hydrodynamic size and polydispersity index (PDI) of nanoparticles; type: physicochemical
In short: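 Hydrodynamic size measured by DLS (Stokes-Einstein), PDI from cumulants fit per ISO 13321/22412. Samples diluted 16× in 25 mM HEPES, water as dispersant, 25° C; PDI measured on dendrimer:nucleic acid 8:1 nanoparticles.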

[5] = system: differentiated mouse muscle cells (C2c12 cells); assay: eGFP expression in differentiated C2c12 cells, coat with or without muscle targeting domain; type: cell-based
Procedure: In a second experiment, differentiated mouse muscle cells (C2c12 cells) were transfected with formulations comprising mRNA expressing eGFP. The muscle cells were differentiated as follows: C2c12 cells were seeded and allowed to grow to confluence in a growth medium. Once the cells were confluent, the medium on the cells was replaced with a differentiation medium for 2 days to allow the cells to develop myotube characteristics. The differentiation medium was replaced with the growth medium 30 mins before transfection. The cells were transfected for 24 hours with nanocarriers indicated in FIG. 27 and harvested to assay the eGFP reporter gene expression using a plate reader. The mRNA used expressed eGFP. The growth medium contained high glucose DMEM (Gibco), 10% FBS (Gibco), 2 mM L-glutamine (Gibco). The differentiated medium contained high glucose DMEM (Gibco), 2% horse serum (Gibco), 2 mM L-glutamine (Gibco), 1 uM insulin.
As in the first experiment, the formulations used were comprising GSCG1,2-RHL (N:P=0.6:1 to mRNA) with DOTMA/DOPE (w/w=10:1 to mRNA) and mRNA, and coated with either the same equivalent of mole of dendritic PGA with or without the muscle targeting domain. The cells were harvested 24 hours post-transfection. Control: Cells were not transfected with mRNA or transfected with mRNA alone. The dendrimer with the muscle targeting domain was muscle-G1-EEEE. […]

[6] = GSCG1,2-RHL N:P 0.6:1, DOTMA/DOPE nanoparticles coated at 2.06:1 (dendrimer to mRNA)
[7] = GSCG1,2-RHL N:P 0.6:1, DOTMA/DOPE nanoparticles coated at 2.72:1 (dendrimer to mRNA)

| Substance | increase in eGFP expression compared to GSCG1,2-RL, 3-LR [1] | cells successfully transfected (uptake of Alexa488 labelled mRNA) (C2c12 muscle cells) | zeta potential [2, 6] | zeta potential [2, 7] | eGFP expression versus coat without muscle targeting domain [3] | PDI [4, 6] | size [4, 6] | PDI [4, 7] | size [4, 7] | eGFP expression versus coat without muscle targeting domain ([5]; GSCG1,2-RHL N:P=0.6:1, DOTMA/DOPE w/w 10:1, same mole equivalent of coat, 24 hours, FIG. 27) | mRNA transfection versus nanoparticles coated with dendrimer without the targeting domain ([5]; coat mole ratio 2.72:1 and 2.06:1 (dendrimer to mRNA)) |
| --- | --- | --- | --- | --- | --- | --- | --- | --- | --- | --- | --- |
| (LR)8(KRL)4(KRL)2KGSCHHHHHHGAASSLNIA(Acp)-NH2 [NTX3] | three-fold | approximately 100% |  |  |  |  |  |  |  |  |  |
| (Ac-EEEE)2KGSCGAASSLNIA-(Acp)-NH2) [muscle-G1-EEEE] |  |  | ~38.7 mV | ~44.0 mV | dramatic increase in eGFP expression | 0.15 | 176 nm | 0.14 | 172 nm | dramatic increase in eGFP expression | improved mRNA transfection |
